Data taken from patent US20090227507A1, “Angiotensin (1-7) Dosage Forms and Uses Thereof” (UNIVERSITY OF SOUTHERN CALIFORNIA, priority 2008, published 2009).

System: CD4 cells in peripheral blood
Experiment: Flow cytometry of peripheral blood, CD4 lymphocytes; USB003 SC once daily for 7 days in healthy men
Format: in vivo, human
Parameters: key to Subjects with shift, Absolute CD4, N-L (normal to low) / Subjects with shift, Absolute CD4, N-H (normal to high) / Subjects with shift, Absolute CD4, H-N (high to normal) / Subjects with shift, Absolute CD4, L-N (low to normal): — signifies subject with no shift from baseline
Conditions: for CD4, Absolute, Mean at Baseline: Baseline (Day 1)
Procedure: • Single-center, randomized, double-blind, placebo-controlled, 2 cohort dose-escalation trial of once daily dosing over a 7-day period (7 doses total): • Cohort 1: 2 subjects treated with placebo and 8 subjects treated with 200 μg/kg USB003 (A(1-7)) • Cohort 2: 2 subjects treated with placebo and 8 subjects treated with 300 μg/kg USB003 • For each cohort, there was a Screening Period, Treatment Phase, Follow-up Period, and Study Termination or Early Withdrawal Day. Subjects were confined to the study unit during the Treatment Phase. • Cohort 2 was treated approximately 1 week after completion of the Treatment Phase for Cohort 1 to allow time for the assessment of safety and tolerability in the first cohort.
Pharmacological Effect: The following evaluations (under efficacy and safety in the protocol) were performed: • Effects on the number of mature blood cells: • 1. CBC (with differential), platelet count, reticulocyte count. • Effects on early hematopoietic progenitor cells and mature lymphocyte subsets in the periphery: • 1. Flow cytometry to evaluate frequency of peripheral blood progenitor cells (eg, CD34^+) and lymphocyte subsets (eg, CD3, CD4, CD8) in peripheral blood. • 2. Collection of blood for later possible culture for progenitor cells (eg, colony forming units-granulocyte/macrophage [CFU-GM]) to evaluate potential effects on CD34^+ hematopoietic progenitor cells in peripheral blood. • 3.
The effect of USB003 on the number of mature blood cells was assessed by the complete blood count with differential, platelet and reticulocyte counts. The effects on early hematopoietic progenitor cells and mature lymphocyte subsets in the periphery were assessed by flow cytometry. In addition, blood was collected and processed to enable culture of progenitors at a later time.
Red blood cell (RBC) count, RBC indices, white blood cell count (WBC) with differential, reticulocyte count, platelet count, hemoglobin (Hb), hematocrit (Hct), plasma hemoglobin, peripheral flow cytometry, including CD34^+, flow cytometry for enumeration of CD3, CD4, and CD8 lymphocytes, and culture for progenitor cells in peripheral blood including colony-forming units-granulocyte/macrophage (CFU-GM).

Asp-Arg-Val-Tyr-Ile-His-Pro [USB003]
CD4, Absolute, Mean at Baseline (200 μg/kg): 1122.6 cells/μL | Subjects with shift, Absolute CD4, H-N (high to normal) (200 μg/kg, Baseline to Day 8): 1 | Subjects with shift, Absolute CD4, L-N (low to normal) (200 μg/kg, Baseline to Day 8): — | Subjects with shift, Absolute CD4, N-H (normal to high) (200 μg/kg, Baseline to Day 8): — | Subjects with shift, Absolute CD4, N-L (normal to low) (200 μg/kg, Baseline to Day 8): — | Subjects with shift, Absolute CD4, H-N (high to normal) (200 μg/kg, Baseline to Day 20): 1 | Subjects with shift, Absolute CD4, L-N (low to normal) (200 μg/kg, Baseline to Day 20): — | Subjects with shift, Absolute CD4, N-H (normal to high) (200 μg/kg, Baseline to Day 20): — | Subjects with shift, Absolute CD4, N-L (normal to low) (200 μg/kg, Baseline to Day 20): — | CD4, Absolute, Mean Change from Baseline (200 μg/kg, Day 3): −88.0 cells/μL | CD4, Absolute, Mean Change from Baseline (200 μg/kg, Day 5): 39.5 cells/μL | CD4, Absolute, Mean Change from Baseline (200 μg/kg, Day 7): 53.6 cells/μL | CD4, Absolute, Mean Change from Baseline (200 μg/kg, Day 8): −24.0 cells/μL | CD4, Absolute, Mean Change from Baseline (200 μg/kg, Day 11): 82.5 cells/μL | CD4, Absolute, Mean Change from Baseline (200 μg/kg, Day 14): 12.1 cells/μL | CD4, Absolute, Mean Change from Baseline (200 μg/kg, Day 17): −70.5 cells/μL | CD4, Absolute, Mean Change from Baseline (200 μg/kg, Day 20): −58.0 cells/μL | CD4, Absolute, Mean at Baseline (300 μg/kg): 734.4 cells/μL | Subjects with shift, Absolute CD4, H-N (high to normal) (300 μg/kg, Baseline to Day 8): — | Subjects with shift, Absolute CD4, L-N (low to normal) (300 μg/kg, Baseline to Day 8): 1 | Subjects with shift, Absolute CD4, N-H (normal to high) (300 μg/kg, Baseline to Day 8): — | Subjects with shift, Absolute CD4, N-L (normal to low) (300 μg/kg, Baseline to Day 8): — | Subjects with shift, Absolute CD4, H-N (high to normal) (300 μg/kg, Baseline to Day 20): — | Subjects with shift, Absolute CD4, L-N (low to normal) (300 μg/kg, Baseline to Day 20): — | Subjects with shift, Absolute CD4, N-H (normal to high) (300 μg/kg, Baseline to Day 20): — | Subjects with shift, Absolute CD4, N-L (normal to low) (300 μg/kg, Baseline to Day 20): 1 | CD4, Absolute, Mean Change from Baseline (300 μg/kg, Day 3): 109.6 cells/μL | CD4, Absolute, Mean Change from Baseline (300 μg/kg, Day 5): 108.1 cells/μL | CD4, Absolute, Mean Change from Baseline (300 μg/kg, Day 7): 129.3 cells/μL | CD4, Absolute, Mean Change from Baseline (300 μg/kg, Day 8): 31.1 cells/μL | CD4, Absolute, Mean Change from Baseline (300 μg/kg, Day 11): −29.3 cells/μL | CD4, Absolute, Mean Change from Baseline (300 μg/kg, Day 14): 9.7 cells/μL | CD4, Absolute, Mean Change from Baseline (300 μg/kg, Day 17): −40.0 cells/μL | CD4, Absolute, Mean Change from Baseline (300 μg/kg, Day 20): 48.9 cells/μL
